Reference: ChEMBL document CHEMBL3885881, “DrugMatrix”

Organism: Rattus norvegicus
Experiment: DrugMatrix - Regimen: Daily Repeat
Type: toxicity, organism-based, Sprague-Dawley
Design: regimen Daily Repeat, gender Male, age 6-8 weeks
Conditions: in vivo, sc, 0 mg/kg, route mini-PUMP - SUBCUTANEOUS, dose level Control, vehicle 100 % SALINE; for ABSOLUTE BASOPHIL / ABSOLUTE EOSINOPHIL / ABSOLUTE LYMPHOCYTE / ABSOLUTE MONOCYTE / ABSOLUTE SEGMENTED NEUTROPHIL / BASOPHIL / EOSINOPHIL / ERYTHROCYTE COUNT / HEMATOCRIT / HEMOGLOBIN / LEUKOCYTE COUNT / LYMPHOCYTE / MEAN CORPUSCULAR HEMOGLOBIN / MEAN CORPUSCULAR HEMOGLOBIN CONCENTRATION / MEAN CORPUSCULAR VOLUME / MONOCYTE / NEUTROPHIL / NUCLEATED RED BLOOD CELLS / PLATELET COUNT: tissue Blood; for ALANINE AMINOTRANSFERASE / ALBUMIN / ALKALINE PHOSPHATASE / ASPARTATE AMINOTRANSFERASE / BLOOD UREA NITROGEN / CARBON DIOXIDE / CHLORIDE / CHOLESTEROL / CREATININE / GLUCOSE / LACTATE DEHYDROGENASE / LIPASE / PHOSPHORUS / POTASSIUM / SODIUM / TOTAL BILIRUBIN / TOTAL PROTEIN / URIC ACID: tissue Plasma

NC[C@H](O)c1ccc(O)c(O)c1 [NOREPINEPHRINE]
ABSOLUTE BASOPHIL (72 h, time 3 day): 0 CELLS/uL | ABSOLUTE EOSINOPHIL (72 h, time 3 day): 77.17 CELLS/uL | ABSOLUTE LYMPHOCYTE (72 h, time 3 day): 14293.83 CELLS/uL | ABSOLUTE MONOCYTE (72 h, time 3 day): 354 CELLS/uL | ABSOLUTE SEGMENTED NEUTROPHIL (72 h, time 3 day): 1658.33 CELLS/uL | BASOPHIL (72 h, time 3 day): 0% | EOSINOPHIL (72 h, time 3 day): 0.5% | ERYTHROCYTE COUNT (72 h, time 3 day): 6.27 x10E6/uL | HEMATOCRIT (72 h, time 3 day): 36.95% | HEMOGLOBIN (72 h, time 3 day): 13.4 G/DL | LEUKOCYTE COUNT (72 h, time 3 day): 16.38 x10E3/uL | LYMPHOCYTE (72 h, time 3 day): 87.17% | MEAN CORPUSCULAR HEMOGLOBIN (72 h, time 3 day): 21.42 pg | MEAN CORPUSCULAR HEMOGLOBIN CONCENTRATION (72 h, time 3 day): 36.27 G/DL | MEAN CORPUSCULAR VOLUME (72 h, time 3 day): 59.03 fL | MONOCYTE (72 h, time 3 day): 2% | NEUTROPHIL (72 h, time 3 day): 10.33% | NUCLEATED RED BLOOD CELLS (72 h, time 3 day): 0 /100WBC | PLATELET COUNT (72 h, time 3 day): 904.67 x10E3/uL | ALANINE AMINOTRANSFERASE (72 h, time 3 day): 48.33 u/L | ALBUMIN (72 h, time 3 day): 3.82 G/DL | ALKALINE PHOSPHATASE (72 h, time 3 day): 282.33 u/L | ASPARTATE AMINOTRANSFERASE (72 h, time 3 day): 86.83 u/L | BLOOD UREA NITROGEN (72 h, time 3 day): 20.17 mg/dL | CARBON DIOXIDE (72 h, time 3 day): 34.67 mmol/L | CHLORIDE (72 h, time 3 day): 102 MEQ/L | CHOLESTEROL (72 h, time 3 day): 71.5 mg/dL | CREATININE (72 h, time 3 day): 0.2 mg/dL | GLUCOSE (72 h, time 3 day): 136.83 mg/dL | LACTATE DEHYDROGENASE (72 h, time 3 day): 159 u/L | LIPASE (72 h, time 3 day): 9 u/L | PHOSPHORUS (72 h, time 3 day): 10.12 mg/dL | POTASSIUM (72 h, time 3 day): 5.92 MEQ/L | SODIUM (72 h, time 3 day): 147.8 MEQ/L | TOTAL BILIRUBIN (72 h, time 3 day): 0.2 mg/dL | TOTAL PROTEIN (72 h, time 3 day): 6.05 G/DL | URIC ACID (72 h, time 3 day): 1.4 mg/dL | ABSOLUTE BASOPHIL (120 h, time 5 day): 0 CELLS/uL | ABSOLUTE EOSINOPHIL (120 h, time 5 day): 0 CELLS/uL | ABSOLUTE LYMPHOCYTE (120 h, time 5 day): 14257.33 CELLS/uL | ABSOLUTE MONOCYTE (120 h, time 5 day): 326 CELLS/uL | ABSOLUTE SEGMENTED NEUTROPHIL (120 h, time 5 day): 3216.67 CELLS/uL | BASOPHIL (120 h, time 5 day): 0% | EOSINOPHIL (120 h, time 5 day): 0% | ERYTHROCYTE COUNT (120 h, time 5 day): 6.11 x10E6/uL | HEMATOCRIT (120 h, time 5 day): 36.22% | HEMOGLOBIN (120 h, time 5 day): 13.18 G/DL | LEUKOCYTE COUNT (120 h, time 5 day): 17.8 x10E3/uL | LYMPHOCYTE (120 h, time 5 day): 80.5% | MEAN CORPUSCULAR HEMOGLOBIN (120 h, time 5 day): 21.62 pg | MEAN CORPUSCULAR HEMOGLOBIN CONCENTRATION (120 h, time 5 day): 36.42 G/DL | MEAN CORPUSCULAR VOLUME (120 h, time 5 day): 59.37 fL | MONOCYTE (120 h, time 5 day): 1.83% | NEUTROPHIL (120 h, time 5 day): 17.67% | NUCLEATED RED BLOOD CELLS (120 h, time 5 day): 0 /100WBC | PLATELET COUNT (120 h, time 5 day): 1311 x10E3/uL | ALANINE AMINOTRANSFERASE (120 h, time 5 day): 47 u/L | ALBUMIN (120 h, time 5 day): 3.83 G/DL | ALKALINE PHOSPHATASE (120 h, time 5 day): 260.33 u/L | ASPARTATE AMINOTRANSFERASE (120 h, time 5 day): 76.17 u/L | BLOOD UREA NITROGEN (120 h, time 5 day): 14.67 mg/dL | CARBON DIOXIDE (120 h, time 5 day): 31.33 mmol/L | CHLORIDE (120 h, time 5 day): 101.17 MEQ/L | CHOLESTEROL (120 h, time 5 day): 75 mg/dL | CREATININE (120 h, time 5 day): 0.16 mg/dL | GLUCOSE (120 h, time 5 day): 152.67 mg/dL | LACTATE DEHYDROGENASE (120 h, time 5 day): 147.33 u/L | LIPASE (120 h, time 5 day): 9.33 u/L | PHOSPHORUS (120 h, time 5 day): 10.97 mg/dL | POTASSIUM (120 h, time 5 day): 6 MEQ/L | SODIUM (120 h, time 5 day): 145.52 MEQ/L | TOTAL BILIRUBIN (120 h, time 5 day): 0.17 mg/dL | TOTAL PROTEIN (120 h, time 5 day): 5.83 G/DL | URIC ACID (120 h, time 5 day): 1.27 mg/dL | ABSOLUTE BASOPHIL ([…], time 14 day): 0 CELLS/uL | ABSOLUTE EOSINOPHIL ([…], time 14 day): 64.5 CELLS/uL | ABSOLUTE LYMPHOCYTE ([…], time 14 day): 12507.83 CELLS/uL | ABSOLUTE MONOCYTE ([…], time 14 day): 380.33 CELLS/uL | ABSOLUTE SEGMENTED NEUTROPHIL ([…], time 14 day): 2414 CELLS/uL | BASOPHIL ([…], time 14 day): 0% | EOSINOPHIL ([…], time 14 day): 0.5% | ERYTHROCYTE COUNT ([…], time 14 day): 6.1 x10E6/uL | HEMATOCRIT ([…], time 14 day): 35.4% | HEMOGLOBIN ([…], time 14 day): 12.88 G/DL | LEUKOCYTE COUNT ([…], time 14 day): 15.37 x10E3/uL | LYMPHOCYTE ([…], time 14 day): 80.83% | MEAN CORPUSCULAR HEMOGLOBIN ([…], time 14 day): 21.18 pg | MEAN CORPUSCULAR HEMOGLOBIN CONCENTRATION ([…], time 14 day): 36.43 G/DL | MEAN CORPUSCULAR VOLUME ([…], time 14 day): 58.17 fL | MONOCYTE ([…], time 14 day): 2.17% | NEUTROPHIL ([…], time 14 day): 16.5% | NUCLEATED RED BLOOD CELLS ([…], time 14 day): 0.17 /100WBC | PLATELET COUNT ([…], time 14 day): 1016 x10E3/uL | ALANINE AMINOTRANSFERASE ([…], time 14 day): 53.33 u/L | ALBUMIN ([…], time 14 day): 3.93 G/DL | ALKALINE PHOSPHATASE ([…], time 14 day): 319.83 u/L | ASPARTATE AMINOTRANSFERASE ([…], time 14 day): 84 u/L | BLOOD UREA NITROGEN ([…], time 14 day): 15.5 mg/dL | CARBON DIOXIDE ([…], time 14 day): 34 mmol/L | CHLORIDE ([…], time 14 day): 101.83 MEQ/L | CHOLESTEROL ([…], time 14 day): 57 mg/dL | CREATININE ([…], time 14 day): 0.21 mg/dL | GLUCOSE ([…], time 14 day): 182.33 mg/dL | LACTATE DEHYDROGENASE ([…], time 14 day): 104.67 u/L | LIPASE ([…], time 14 day): 9.17 u/L | PHOSPHORUS ([…], time 14 day): 11.12 mg/dL | POTASSIUM ([…], time 14 day): 5.81 MEQ/L | SODIUM ([…], time 14 day): 144.85 MEQ/L | TOTAL BILIRUBIN ([…], time 14 day): 0.18 mg/dL | TOTAL PROTEIN ([…], time 14 day): 5.92 G/DL | URIC ACID ([…], time 14 day): 1.38 mg/dL
